From patent US20030157101A1, “Immunogenic ALK peptides” (priority 2001, published 2003)
Several values for one entry are separate records, joined by “and”; a condition that tells them apart may be missing. Identical values can stand only once. Entries after “also recorded” stand apart in the source; their conditions may differ.

How the values were obtained:
[1] = biological target: HLA-A*0201/peptide complexes (Homo sapiens, UniProt P04439, D140Y/D185E/D98H/E176V/E277Q/G131W/G231S/I119V/I121R/I166T/I218V/L300P/L318F/N151K/N90K/P208A/P217A/Q86G/Q94H/R138H/R169H/T345S); test: HLA-A*0201/peptide complex stability on T2 cells (DC50); assay type: binding; settings: 100 μM peptide overnight, Brefeldin A, 37° C.
Protocol: To assess the HLA-A*0201/peptide complex stability, T2 cells (10^6/ml) were incubated overnight with 100 μM of each peptide in serum free RPMI 1640 supplemented with 100 ng/ml of human β2m at 37° C. Cells were then washed four times to remove free peptides, incubated for 1 hr with 10 μg/ml of Brefeldin A (Sigma-Aldrich, France) in order to block cell surface expression of newly synthesized HLA-A*0201 molecules, washed and incubated at 37° C. for 0, 2, 4, 6, or 8 hours. Subsequently, cells were stained with anti-HLA-A2.1 mAb BB7.2. For each time point, peptide induced HLA-A*0201 expression was calculated as: mean fluorescence value of peptide incubated T2 cells/mean fluorescence value T2 cells in the absence of the peptide.

[2] = tested on: healthy donor PBLs; test: Stimulation of ALK-specific CTLs from healthy donor PBLs; assay type: cell-based, human; settings: three donors tested per peptide; lysis of peptide loaded T2 cells and NPM/ALK-positive lymphoma lines
Protocol: Blood was collected from HLA-A*0201 normal volunteer donors. PBMC were isolated from whole blood by Ficoll/Hypaque (Pharmacia, Uppsala, Sweden) density gradient centrifugation. Dendritic cells (DCs) were generated according to the protocol of Sallusto and Lanzavecchia (Sallusto F. et al., (1994) J Exp Med. 179: 1109-1118). Adherent monocyte-enriched peripheral blood mononuclear cells (PBMCs) were cultured in RPMI 1640 medium supplemented with 10% FCS, 20 ng/ml recombinant human interleukin (IL)-4 (R&D Systems, Minneapolis, Minn.) and 800 U/ml recombinant human granulocyte-macrophage colony-stimulating factor (GM-CSF) (Sandoz, Basel, Switzerland). On day 5 of culture, 10 ng/ml recombinant human tumor necrosis factor (TNF)-α (Knoll, Ludwigshafen, Germany) was added to the medium. After 40 hrs, the surface phenotype of monocyte-derived DCs was determined by single-color flow cytometry using the following mAbs: fluorescein-conjugated anti-CD1a ([…], Torino, Italy), anti-CD86 (CALTAG, Burlingame, Calif.), anti-CD83 (CALTAG, Burlingame, Calif.), anti-CD14 (Becton Dickinson) and rhodamine-conjugated anti-CD80 (Becton Dickinson). DCs were used to prime autologous PBL as follows. DCs were pulsed with 10 μM peptide for 2 hrs at 37° C., irradiated at 30 Gy and added to autologous PBLs at a ratio variable from 3:1 to 6:1 (PBL:DC). PBLs (36×10^6 total) were cultured at 1,5×10^6 cells/2ml of Culture Medium (CM: 50% RPMI 1640/50% X-VIVO (BioWhittaker, […], Mass.)) supplemented with 10% of heat-inactivated autologous plasma and 10 ng/ml IL-7 (R&D Systems, Minneapolis, Minn.) in the presence of autologous peptide-loaded DCs. At day 10-12 of culture, lymphocytes were restimulated with irradiated (30 Gy) autologous peptide-loaded monocytes in CM supplemented with 10% of heat-inactivated autologous plasma. After 24-48 hrs 10 IU/ml IL-2 (Chiron Co., Emeryville, Calif.) and 10 ng/ml IL-7 was added to the CM. Lymphocytes were then restimulated weekly in the same way. Starting from the forth round of stimulation, the specificity of the resulting T-cell lines was evaluated weekly in a cytolytic assay. When any specific activity was detected, CD8+ T-cells were isolated from the bulk culture by CD4+ cells negative depletion using mAb-coated beads (Dynal Dynabeads, Oxoid, Oslo, Norway) and the CTL lines were maintained in culture in RPMI 1640 containing 10% human AB serum supplemented with 50 U/ml IL-2 in the presence of irradiated (70 Gy) PBMCs as feeder. To prime ALK-specific lymphocytes, peptide-pulsed autologous dendritic cells (DCs) derived from peripheral blood mononuclear cells (PBMCs) were used after their in vitro maturation was confirmed by flow cytometric analysis of DC-specific cell surface markers. After a 3-4 week cycle of restimulation T lymphocyte specificity for ALK peptides was evaluated by determining antigen-restricted lysis of peptide loaded T2 cells (FIG. 1A) and NPM/ALK-positive lymphoma cell lines (FIG. 1B).

[3] = tested on: HLA-A*0201 monochain transgenic (HHD) mice; test: In vivo immunogenicity of ALK-derived peptides in HHD mice (51Cr-release on peptide-pulsed RMA-S/HHD cells); settings: for R/T HHD mice (responder versus tested mice): 100 μg peptide s.c. in IFA, responder = specific lysis at least 15% above lysis of unloaded RMA-S/HDD; for % lysis of peptide-loaded RMA-S/HHD cells: E:T ratio 60:1, maximal lysis observed for each responder mouse
[4] = tested on: ALCL lymphoma cell lines SU-DHL1 and SUP-M2; test: 51Cr release lysis of NPM/ALK-expressing ALCL cell lines by peptide-specific CTLs; assay type: cell-based, human; settings: SU-DHL1 and SUP-M2, HLA-A2.1+
Protocol: (§1) Cytolytic activity was measured in a conventional 4-hrs ^51Cr release assay. A 10-fold excess of unlabeled K562 cells was added to offset NK activity. Target cells and E:T ratio are indicated in each figure. Specific lysis was determined according to the following formula: % specific lysis=cpm (sample−spontaneous)/cpm (total−spontaneous)×100. HLA-A*0201 blocking of T-cell activity (lysis and/or citokine release) was performed by preincubating target cells with the anti-HLA-A2 mAb CR11.351.
(§2) Thus, it can be concluded that ALK peptide induced CTLs efficiently lyse lymphoma targets, in a HLA-A2 restricted fashion, by relevant antigen-specific recognition.

[5] = tested on: FM3 (melanoma), HCT-116 (colon carcinoma), MCF-7 (breast carcinoma); test: 51Cr release lysis of HLA-A2.1+/ALK- tumor lines by peptide-specific CTLs; assay type: cell-based, human; settings: FM3, HCT-116, MCF-7
Protocol: as §1, §2

[6] = tested on: neuroblastoma cell line IMR-32; test: 51Cr release lysis of HLA-A2.1+/ALK+ neuroblastoma cells by peptide-specific CTLs; assay type: cell-based, human; settings: IMR-32, treated with INF-γ before use
Protocol: as §1, with “(sample-spontaneous)/cpm (total-spontaneous)×100.” for “(sample−spontaneous)/cpm (total−spontaneous)×100.”, “CR11.351. […] Because p280-89 and p376-85 peptides lie within the kinase domain, which is present in both native and translocated ALK, we used neuroblastoma cell lines as targets in cytotoxic experiments to further verify the natural processing of these two epitopes.” for “CR11.351.”

[7] = tested on: SK-N-SH (HLA-A2.1-/ALK+) and NB-5 (HLA-A2.1+/ALK-) cell lines; test: 51Cr release lysis of control neuroblastoma lines by peptide-specific CTLs; assay type: cell-based, human
Protocol: as §1, with “(sample-spontaneous)/cpm (total-spontaneous)×100.” for “(sample−spontaneous)/cpm (total−spontaneous)×100.”, “CR11.351. […] Because p280-89 and p376-85 peptides lie within the kinase domain, which is present in both native and translocated ALK, we used neuroblastoma cell lines as targets in cytotoxic experiments to further verify the natural processing of these two epitopes.” for “CR11.351.”

[8] = tested on: anti-ALK specific CTLs; test: IFN-γ release assay with anti-ALK CTL lines (ELISA); assay type: cell-based, human; settings: for Peptide concentration giving maximal IFN-γ production: titration on T2 cells, peptide-specific CTL lines; for IFN-γ released by p280-89 CTLs: p280-89 loaded autologous LCL
[9] = tested on: ALCL lymphoma cell lines SU-DHL1 and SUP-M2; settings: cited from earlier work
[10] = biological target: T1, HLA-A*0201 molecules on TAP-deficient T2 cells (human); test: T2 cell HLA-A*0201 stabilisation, 100 uM peptide, flow cytometry with mAb BB7.2; mean of 4 experiments ± SEM
T1 construct: Peptide-receptive class I molecule on T2 cells; also called HLA-A2.1; HLA-A2
Protocol: T2 cells were incubated with 100 μM of peptide in serum-free RPMI 1640 supplemented with 5 μg/ml of human β₂m (Fluka, Buchs, Germany) for 18 hrs at 37° C.

[11] = biological target: T1, HLA-A*0201 molecules on TAP-deficient …; test: T2 cells loaded with 100 uM peptide, Brefeldin A, flow cytometry with BB7.2 over 0-8 h
From the text: Subsequently, cells were stained with anti-HLA-A2.1 mAb BB7.2.

| Molecule | DC50, half-life of disassociation of HLA-A*02.01/peptide complexes [1] [h] | FI (Fluorescence Index) [10] | Donor response to peptide stimulation (specific CD8 reactivity) [2] | R/T HHD mice (responder versus tested mice) [3] | % lysis of peptide-loaded RMA-S/HHD cells [3] | further results |
| --- | --- | --- | --- | --- | --- | --- |
| GVLLWEIFSL (listed as Homo sapiens) [p376-85] | – | – | At least one out of the three donors tested were found to be responders | 3/6 | 24% and 15% | Lysis of NPM/ALK-expressing ALCL cell lines by peptide-specific CTLs [4]: efficiently recognize and lyse; also recorded: killed these tumor lines; Lysis of HLA-A2.1+/ALK- tumor lines by peptide-specific CTLs [5]: no activity was detected; also recorded: No lysis above background level; Lysis of HLA-A2.1+/ALK+ neuroblastoma cells by peptide-specific CTLs [6]: efficiently lysed; Lysis of HLA-A2.1+/ALK+ neuroblastoma cells by peptide-specific CTLs ([6]; listed as p375-86): recognize and kill; Lysis of HLA-A2.1-/ALK+ or HLA-A2.1+/ALK- neuroblastoma lines by peptide-specific CTLs [7]: No lysis was detected; IFN-γ released by p376-85 CTLs ([8]; donor one, p376-85 pulsed T2 cells, 5 μM peptide): 674 IU/ml; Peptide concentration giving maximal IFN-γ production [8]: 100 nM |
| LAMLDLLHV (listed as Homo sapiens) [p281-89] | – | – | No specific CD8 reactivity was detected | 2/6 | 42% and 34% | – |
| SLAMLDLLHV (listed as Homo sapiens) [p280-89] | – | – | At least one out of the three donors tested were found to be responders | 3/6 | – | Lysis of NPM/ALK-expressing ALCL cell lines by peptide-specific CTLs [4]: efficiently recognize and lyse; also recorded: killed these tumor lines; Lysis of HLA-A2.1+/ALK- tumor lines by peptide-specific CTLs [5]: no activity was detected; also recorded: No lysis above background level; Lysis of HLA-A2.1+/ALK+ neuroblastoma cells by peptide-specific CTLs [6]: recognize and kill; also recorded: efficiently lysed; Lysis of HLA-A2.1-/ALK+ or HLA-A2.1+/ALK- neuroblastoma lines by peptide-specific CTLs [7]: No lysis was detected; CTL cytotoxicity against NPM/ALK-positive lymphoma cell lines [9]: stimulate CTL cytotoxicity; IFN-γ released by p280-89 CTLs ([8]; donor three, 5 μM peptide): 750 IU/ml; IFN-γ released by p280-89 CTLs ([8]; donor two, 5 μM peptide): 445 IU/ml; Peptide concentration giving maximal IFN-γ production [8]: 10 nM |
| SLAMLDLLHV (Lies within the ALK kinase domain) [ALK peptide p280-89 (SLAMLDLLHV)] | – | 5.6 ratio (sample / irrelevant-peptide control) | – | – | – | DC50 (half-life of dissociation of HLA-A*0201/peptide complexes) [11]: 4 hs (hours) |
| LAMLDLLHV [ALK peptide p281-89 (LAMLDLLHV)] | – | 3.5 ratio (sample / irrelevant-peptide control) | – | – | – | DC50 (half-life of dissociation of HLA-A*0201/peptide complexes) [11]: 2 hs (hours) |

Second part, led by results:

| DC50, half-life of disassociation of HLA-A*02.01/peptide complexes [1] [h] | FI (Fluorescence Index) [10] | Molecule | Donor response to peptide stimulation (specific CD8 reactivity) [2] | R/T HHD mice (responder versus tested mice) [3] | % lysis of peptide-loaded RMA-S/HHD cells [3] | further results |
| --- | --- | --- | --- | --- | --- | --- |
| 2 to 4 | – | ALPIEYGPLV (listed as Homo sapiens) [p456-65] | At least one out of the three donors tested were found to be responders | 2/6 | – | – |
| 4 to 6 | – | AMLDLLHVA (listed as Homo sapiens) [p282-90] | No specific CD8 reactivity was detected | 3/6 | 80% and 56% and 50% | – |
| 4 to 6 | – | SLTANMKEV (listed as Homo sapiens) [p621-29] | No specific CD8 reactivity was detected | 2/6 | 63% and 53% | – |
| 4 to 6 | – | VLLWEIFSL (listed as Homo sapiens) [p377-85] | At least one out of the three donors tested were found to be responders | 3/6 | – | – |
| – | 4.2 ratio (sample / irrelevant-peptide control) | ALPIEYGPLV (Downstream of the kinase domain) [ALK peptide p456-65 (ALPIEYGPLV)] | – | – | – | – |
| – | 2.8 ratio (sample / irrelevant-peptide control) | GVLLWEIFSL (also called p375-86) [ALK peptide p376-85 (GVLLWEIFSL)] | – | – | – | DC50 (half-life of dissociation of HLA-A*0201/peptide complexes) [11]: 6 hs (hours) |
| – | 5.4 ratio (sample / irrelevant-peptide control) | AMLDLLHVA [ALK peptide p282-90 (AMLDLLHVA)] | – | – | – | – |
| – | 3 ratio (sample / irrelevant-peptide control) | VLLWEIFSL [ALK peptide p377-85 (VLLWEIFSL)] | – | – | – | – |
